In patent US20200399222A1, “PICOLINAMIDES AS FUNGICIDES” (Dow AgroSciences LLC, priority 2018, published 2020):
Read-outs that look alike come from different tables or passages of the source.

Tests used:
Format in all cases: in vivo
Zymoseptoria tritici = experiment: Leaf blotch of wheat (SEPTTR) disease control on wheat seedlings; conditions: for pest or weed control at 100 ppm: High volume application; for pest or weed control at 121.5 g/ha: Low volume application
Procedure: Example A: Evaluation of Fungicidal Activity: Leaf Blotch of Wheat (Zymoseptoria tritici; Bayer Code […]) Technical grades of materials were dissolved in acetone, which were then mixed with nine volumes of water containing 110 ppm Triton X-100. The fungicide solutions were applied onto wheat seedlings using an automated booth sprayer to run-off. All sprayed plants were allowed to air dry prior to further handling. All fungicides were evaluated using the aforementioned method for their activity vs. all target diseases, unless stated otherwise. Wheat leaf blotch and brown rust activity were also evaluated using track spray applications, in which case the fungicides were formulated as EC formulations, containing 0.1% Trycol 5941 in the spray solutions. Wheat plants (variety Yuma) were grown from seed in a greenhouse in 50% mineral soil/50% soil-less Metro mix until the first leaf was fully emerged, with 7-10 seedlings per pot. These plants were inoculated with an aqueous spore suspension of Zymoseptoria tritici either prior to or after fungicide treatments. After inoculation the plants were kept in 100% relative humidity (one day in a dark dew chamber followed by two to three days in a lighted dew chamber at 20° C.) to permit spores to germinate and infect the leaf. The plants were then transferred to a greenhouse set at 20° C. for disease to develop. When disease symptoms were fully expressed on the 1st leaves of untreated plants, infection levels were assessed on a scale of 0 to 100 percent disease severity. Percent disease control was calculated using the ratio of disease severity on treated plants relative to untreated plants.

Puccinia triticina = experiment: Wheat brown rust (PUCCRT) disease control on wheat seedlings; conditions: for pest or weed control at 100 ppm: High volume application; for pest or weed control at 121.5 g/ha: Low volume application
Procedure: Technical grades of materials were dissolved in acetone, which were then mixed with nine volumes of water containing 110 ppm Triton X-100. The fungicide solutions were applied onto wheat seedlings using an automated booth sprayer to run-off. All sprayed plants were allowed to air dry prior to further handling. All fungicides were evaluated using the aforementioned method for their activity vs. all target diseases, unless stated otherwise. Wheat leaf blotch and brown rust activity were also evaluated using track spray applications, in which case the fungicides were formulated as EC formulations, containing 0.1% Trycol 5941 in the spray solutions. Example B: Evaluation of Fungicidal Activity: Wheat Brown Rust (Puccinia triticina; Synonym: Puccinia recondita f. sp. tritici; Bayer Code PUCCRT) Wheat plants (variety Yuma) were grown from seed in a greenhouse in 50% mineral soil/50% soil-less Metro mix until the first leaf was fully emerged, with 7-10 seedlings per pot. These plants were inoculated with an aqueous spore suspension of Puccinia triticina either prior to or after fungicide treatments. After inoculation the plants were kept in a dark dew room at 22° C. with 100% relative humidity overnight to permit spores to germinate and infect the leaf. The plants were then transferred to a greenhouse set at 24° C. for disease to develop. Fungicide formulation, application and disease assessment followed the procedures as described in the Example A.

Phakopsora pachyrhizi = experiment: Asian soybean rust (PHAKPA) disease control on soybean seedlings; conditions: Phakopsora pachyrhizi, High volume application at 25 ppm
Procedure: Example C: Evaluation of Fungicidal Activity: Asian Soybean Rust (Phakopsora pachyrhizi; Bayer Code […]) Technical grades of materials were dissolved in acetone, which were then mixed with nine volumes of water containing 0.011% Tween 20. The fungicide solutions were applied onto soybean seedlings using an automated booth sprayer to run-off. All sprayed plants were allowed to air dry prior to further handling. Soybean plants (variety Williams 82) were grown in soil-less Metro mix, with one plant per pot. Two week old seedlings were used for testing. Plants were inoculated either 3 days prior to or 1 day after fungicide treatments. Plants were incubated for 24 h in a dark dew room at 22° C. and 100% relative humidity then transferred to a growth room at 23° C. for disease to develop. Disease severity was assessed on the sprayed leaves.

[1] = 24 h, 1 Day Protectant, read-out: SEPTTR disease control rating, 1DP
[2] = 72 h, 3 Day Curative, read-out: SEPTTR disease control rating, 3DC
[3] = 24 h, 1 Day Protectant, read-out: PUCCRT disease control rating, 1DP
[4] = 72 h, 3 Day Curative, read-out: PUCCRT disease control rating, 3DC
[5] = 72 h, 3 day curative, read-out: PHAKPA 3DC (3 Day Curative) disease control
[6] = 24 h, 1 day protectant, read-out: PHAKPA 1DP (1 Day Protectant) disease control

Structure (SMILES) | pest or weed control at 100 ppm (Zymoseptoria tritici; [1]) | pest or weed control at 100 ppm (Zymoseptoria tritici; [2]) | pest or weed control at 100 ppm (Puccinia triticina; [3]) | pest or weed control at 100 ppm (Puccinia triticina; [4]) | pest or weed control at 25 ppm (Phakopsora pachyrhizi; [5]) | pest or weed control at 25 ppm (Phakopsora pachyrhizi; [6]) | pest or weed control at 121.5 g/ha (Zymoseptoria tritici; [1]) | pest or weed control at 121.5 g/ha (Zymoseptoria tritici; [2]) | pest or weed control at 121.5 g/ha (Puccinia triticina; [3]) | pest or weed control at 121.5 g/ha (Puccinia triticina; [4])
COc1ccnc(C(=O)N[C@@H](C)C(=O)O[C@@H](C)[C@@H](C)c2ccc(F)cc2C)c1O [Example 128] | > 80% | > 80% | > 80% | > 80% | > 80% |  |  |  |  | 
COc1ccnc(C(=O)N[C@@H](C)C(=O)O[C@@H](C)[C@@H](C)c2ccccc2C(F)(F)F)c1O [Example 158] | > 80% | < 80% | > 80% | > 80% | < 80% |  |  |  |  | 
COc1ccnc(C(=O)N[C@@H](C)C(=O)O[C@@H](C)[C@@H](C)c2ccc(F)cc2C(F)(F)F)c1O [Example 159] | > 80% | > 80% | > 80% | > 80% | > 80% |  |  |  |  | 
COc1ccnc(C(=O)N[C@@H](C)C(=O)O[C@@H](C)[C@@H](C)c2ccccc2C)c1O [Example 175] | < 80% | < 80% | > 80% | > 80% | > 80% | > 80% |  |  |  | 
COc1ccnc(C(=O)N[C@@H](C)C(=O)O[C@@H](C)[C@@H](C)c2ccc(C)cc2C)c1OC(C)=O [Example 177] |  |  |  |  | > 80% | > 80% | > 80% | > 80% | > 80% | > 80%
COc1ccnc(C(=O)N[C@@H](C)C(=O)O[C@H](C)[C@H](C)c2ccc(C)cc2C)c1OC(C)=O [Example 178] |  |  |  |  | < 80% | > 80% | < 80% | < 80% | < 80% | < 80%
COc1ccnc(C(=O)N[C@@H](C)C(=O)O[C@@H](C)[C@@H](C)c2ccc(C)cc2C)c1OC(=O)C(C)C [Example 179] |  |  |  |  | > 80% | > 80% | < 80% | < 80% | > 80% | > 80%
COc1ccnc(C(=O)N[C@@H](C)C(=O)O[C@H](C)[C@H](C)c2ccc(C)cc2C)c1OC(=O)C(C)C [Example 180] |  |  |  |  | < 80% | > 80% | < 80% | < 80% | < 80% | < 80%
COc1ccnc(C(=O)N[C@@H](C)C(=O)O[C@@H](C)[C@H](C)c2ccccc2C)c1OCOC(C)=O [Example 231] |  |  |  |  | < 0% | < 80% | < 80% | < 80% | > 80% | < 80%
COc1ccnc(C(=O)N[C@@H](C)C(=O)O[C@H](C)[C@H](C)c2ccc(F)cc2)c1OCOC(C)=O [Example 232] |  |  |  |  | < 0% | < 80% | < 0% | < 80% | > 80% | < 80%
COc1ccc([C@@H](C)[C@@H](C)OC(=O)[C@H](C)NC(=O)c2nccc(OC)c2OCOC(C)=O)c(C)c1 [Example 233] |  |  |  |  | < 80% | > 80% | < 80% | < 80% | > 80% | < 80%
COc1ccnc(C(=O)N[C@@H](C)C(=O)O[C@@H](C)[C@@H](C)c2ccccc2C(F)(F)F)c1OC(=O)C(C)C [Example 234] |  |  |  |  | > 80% | > 80% | < 80% | < 80% | < 80% | < 80%
COc1ccnc(C(=O)N[C@@H](C)C(=O)O[C@@H](C)[C@@H](C)c2ccc(F)cc2C(F)(F)F)c1OC(=O)C(C)C [Example 235] |  |  |  |  | > 80% | > 80% | > 80% | > 80% | < 80% | < 80%
COc1ccnc(C(=O)N[C@@H](C)C(=O)O[C@@H](C)[C@@H](C)C2CCCC2)c1OC(=O)C(C)C [Example 236] |  |  |  |  | < 0% | > 80% | < 80% | < 0% | < 80% | < 80%
COc1ccnc(C(=O)N[C@@H](C)C(=O)O[C@@H](C)[C@@H](C)c2c(C)cccc2C)c1OC(=O)C(C)C [Example 237] |  |  |  |  | > 80% | > 80% | < 80% | < 80% | < 80% | < 80%
COc1ccnc(C(=O)N[C@@H](C)C(=O)O[C@@H](C)[C@@H](C)c2c(C)cc(F)cc2C)c1OC(=O)C(C)C [Example 238] |  |  |  |  | > 80% | > 80% | > 80% | > 80% | > 80% | < 80%
CCC(=O)Oc1c(OC)ccnc1C(=O)N[C@@H](C)C(=O)O[C@@H](C)[C@@H](C)c1ccccc1C [Example 278] |  |  |  |  | > 80% | > 80% |  |  |  | 
CCCC(=O)Oc1c(OC)ccnc1C(=O)N[C@@H](C)C(=O)O[C@@H](C)[C@@H](C)c1ccccc1C [Example 279] |  |  |  |  | > 80% | > 80% |  |  |  | 
CCCCC(=O)Oc1c(OC)ccnc1C(=O)N[C@@H](C)C(=O)O[C@@H](C)[C@@H](C)c1ccccc1C [Example 280] |  |  |  |  | > 80% | > 80% |  |  |  | 
COc1ccnc(C(=O)N[C@@H](C)C(=O)O[C@@H](C)[C@@H](C)c2ccccc2C)c1OC(=O)C1CC1 [Example 281] |  |  |  |  | > 80% | > 80% |  |  |  | 
COc1ccnc(C(=O)N[C@@H](C)C(=O)O[C@@H](C)[C@@H](C)c2ccccc2C)c1OC(=O)c1ccccc1 [Example 282] |  |  |  |  | > 80% | > 80% |  |  |  | 
COc1ccnc(C(=O)N[C@@H](C)C(=O)O[C@@H](C)[C@@H](C)c2ccccc2C)c1OCOC(=O)C(C)C [Example 284] |  |  |  |  | > 80% | > 80% |  |  |  | 
COc1ccnc2c(=O)n([C@@H](C)C(=O)O[C@@H](C)[C@@H](C)c3ccccc3C)c(=O)oc12 [Example 285] |  |  |  |  | > 80% | > 80% |  |  |  | 
